Data taken from ChEMBL document CHEMBL4382193, “Discovery of Potent Irreversible Pan-Fibroblast Growth Factor Receptor (FGFR) Inhibitors” (J Med Chem, 2018).
One block for each compound: values may come before it. The source made the active and inactive calls. The calls are words filed in the database; no cut-off is given here.

Assays:
NCI-H1581 [1] = experiment: cells; settings: Homo sapiens, NCI-H1581, 72 h
Description: Antiproliferative activity against FGFR1 amplified human NCI-H1581 cells after 72 hrs by CCK8 or MTT assay

[2] = target: Fibroblast growth factor receptor 4 (Homo sapiens, UniProt P22455); experiment: Inhibition of recombinant FGFR4 (unknown origin) using poly (Glu,Tyr) 4:1 as substrate after 60 mins by ELISA
Sequence of Fibroblast growth factor receptor 4 (P22455 whole entry): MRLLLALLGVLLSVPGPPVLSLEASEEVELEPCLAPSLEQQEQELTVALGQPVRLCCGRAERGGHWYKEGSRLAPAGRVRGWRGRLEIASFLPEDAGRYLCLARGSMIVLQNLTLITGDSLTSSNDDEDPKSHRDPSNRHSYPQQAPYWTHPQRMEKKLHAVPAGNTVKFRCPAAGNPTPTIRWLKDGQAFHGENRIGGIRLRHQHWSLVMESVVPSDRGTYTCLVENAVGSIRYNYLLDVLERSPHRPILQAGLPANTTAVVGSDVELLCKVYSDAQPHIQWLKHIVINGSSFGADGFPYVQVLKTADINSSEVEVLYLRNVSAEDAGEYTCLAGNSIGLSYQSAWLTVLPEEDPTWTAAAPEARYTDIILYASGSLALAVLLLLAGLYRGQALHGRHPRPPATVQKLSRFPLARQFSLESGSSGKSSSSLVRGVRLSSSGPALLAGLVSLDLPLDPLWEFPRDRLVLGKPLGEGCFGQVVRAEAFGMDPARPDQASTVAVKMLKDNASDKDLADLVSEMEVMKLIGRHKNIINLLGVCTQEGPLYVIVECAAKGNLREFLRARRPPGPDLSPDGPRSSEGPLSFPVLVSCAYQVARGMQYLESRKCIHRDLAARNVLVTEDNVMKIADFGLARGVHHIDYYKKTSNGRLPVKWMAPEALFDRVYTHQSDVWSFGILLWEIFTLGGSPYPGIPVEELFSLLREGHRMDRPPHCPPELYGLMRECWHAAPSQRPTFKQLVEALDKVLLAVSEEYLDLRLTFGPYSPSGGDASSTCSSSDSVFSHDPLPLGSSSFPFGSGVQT

[3] = target: T1, Fibroblast growth factor receptor 1 (Homo sapiens, UniProt P11362)
Target sequence in this assay (P11362 whole entry): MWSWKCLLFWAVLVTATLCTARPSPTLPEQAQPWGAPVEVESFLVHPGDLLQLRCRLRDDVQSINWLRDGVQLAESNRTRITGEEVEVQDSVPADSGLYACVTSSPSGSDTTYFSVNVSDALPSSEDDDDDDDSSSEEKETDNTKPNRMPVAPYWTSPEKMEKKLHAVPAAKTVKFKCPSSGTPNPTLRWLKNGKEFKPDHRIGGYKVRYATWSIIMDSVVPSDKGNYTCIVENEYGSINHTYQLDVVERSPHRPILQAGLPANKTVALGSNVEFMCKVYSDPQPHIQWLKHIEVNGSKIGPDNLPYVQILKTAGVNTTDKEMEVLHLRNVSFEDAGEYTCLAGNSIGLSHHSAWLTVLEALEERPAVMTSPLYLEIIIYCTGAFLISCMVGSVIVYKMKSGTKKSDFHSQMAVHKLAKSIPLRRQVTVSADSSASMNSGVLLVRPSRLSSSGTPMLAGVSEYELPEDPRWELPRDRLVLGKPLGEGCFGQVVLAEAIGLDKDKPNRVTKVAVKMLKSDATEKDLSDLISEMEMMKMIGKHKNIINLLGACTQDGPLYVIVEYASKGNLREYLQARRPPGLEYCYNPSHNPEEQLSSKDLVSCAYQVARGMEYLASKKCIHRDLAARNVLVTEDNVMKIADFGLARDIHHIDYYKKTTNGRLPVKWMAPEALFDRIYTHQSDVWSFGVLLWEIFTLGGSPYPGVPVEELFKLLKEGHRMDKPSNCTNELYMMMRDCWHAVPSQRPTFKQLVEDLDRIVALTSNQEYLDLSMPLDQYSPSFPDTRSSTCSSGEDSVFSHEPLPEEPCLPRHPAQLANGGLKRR
Description: Inhibition of recombinant FGFR1 (unknown origin) using poly (Glu,Tyr) 4:1 as substrate after 60 mins by ELISA

[4] = Tmax in Sprague-Dawley rat at 10 mg/kg, po administered via gavage by HPLC-MS/MS analysis; type: ADME, organism-based; settings: in vivo
[5] = Cmax in Sprague-Dawley rat at 10 mg/kg, po administered via gavage by HPLC-MS/MS analysis; type: ADME, organism-based; set-up: dose 10 mg/kg, route oral; settings: in vivo
[6] = AUC in Sprague-Dawley rat at 10 mg/kg, po administered via gavage by HPLC-MS/MS analysis; type: ADME, organism-based; settings: in vivo
[7] = Terminal half life in Sprague-Dawley rat at 10 mg/kg, po administered via gavage by HPLC-MS/MS analysis; type: ADME, organism-based; settings: in vivo, read-out: beta t1/2 (converted)
[8] = target: T2, Fibroblast growth factor receptor 2 (Homo sapiens, UniProt P21802); experiment: Inhibition of recombinant FGFR2 (unknown origin) using poly (Glu,Tyr) 4:1 as substrate after 60 mins by ELISA
[9] = target: T3, Fibroblast growth factor receptor 3 (Homo sapiens, UniProt P22607); experiment: Inhibition of recombinant FGFR3 (unknown origin) using poly (Glu,Tyr) 4:1 as substrate after 60 mins by ELISA
[10] = target: Vascular endothelial growth factor receptor 2 (Homo sapiens, UniProt P35968); experiment: Inhibition of recombinant VEGFR2 (unknown origin) using poly (Glu,Tyr) 4:1 as substrate after 60 mins by ELISA
[11] = target: Platelet-derived growth factor receptor alpha (Homo sapiens, UniProt P16234); experiment: Inhibition of recombinant PDGFRalpha (unknown origin) using poly (Glu,Tyr) 4:1 as substrate after 60 mins by ELISA
[12] = target: Platelet-derived growth factor receptor beta (Homo sapiens, UniProt P09619); experiment: Inhibition of recombinant PDGFRbeta (unknown origin) using poly (Glu,Tyr) 4:1 as substrate after 60 mins by ELISA
[13] = target: ALK tyrosine kinase receptor (Homo sapiens, UniProt Q9UM73); experiment: Inhibition of recombinant ALK (unknown origin) using poly (Glu,Tyr) 4:1 as substrate after 60 mins by ELISA
[14] = target: Vascular endothelial growth factor receptor 1 (Homo sapiens, UniProt P17948); experiment: Inhibition of recombinant FLT1 (unknown origin) using poly (Glu,Tyr) 4:1 as substrate after 60 mins by ELISA
[15] = target: Proto-oncogene tyrosine-protein kinase Src (Homo sapiens, UniProt P12931); experiment: Inhibition of recombinant c-SRC (unknown origin) using poly (Glu,Tyr) 4:1 as substrate after 60 mins by ELISA
Sequence of Proto-oncogene tyrosine-protein kinase Src (P12931 2-536 limits assumed): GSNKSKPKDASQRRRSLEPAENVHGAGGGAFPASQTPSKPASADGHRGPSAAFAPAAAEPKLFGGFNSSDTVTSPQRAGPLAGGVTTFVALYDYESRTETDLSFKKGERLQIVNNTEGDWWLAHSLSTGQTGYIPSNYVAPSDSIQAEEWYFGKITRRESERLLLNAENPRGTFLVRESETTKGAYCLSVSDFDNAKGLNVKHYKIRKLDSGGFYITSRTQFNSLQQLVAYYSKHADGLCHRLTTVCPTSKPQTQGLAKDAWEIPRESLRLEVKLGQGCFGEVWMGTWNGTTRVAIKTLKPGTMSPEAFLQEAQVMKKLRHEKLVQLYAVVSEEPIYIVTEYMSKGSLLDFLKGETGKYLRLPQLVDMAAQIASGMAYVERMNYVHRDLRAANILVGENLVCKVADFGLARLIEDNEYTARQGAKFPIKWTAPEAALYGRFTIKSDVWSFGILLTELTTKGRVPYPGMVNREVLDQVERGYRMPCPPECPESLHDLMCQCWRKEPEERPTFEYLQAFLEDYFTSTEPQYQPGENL

[16] = target: Receptor tyrosine-protein kinase erbB-2 (Homo sapiens, UniProt P04626); experiment: Inhibition of recombinant ERBB2 (unknown origin) using poly (Glu,Tyr) 4:1 as substrate after 60 mins by ELISA
[17] = target: Hepatocyte growth factor receptor (Homo sapiens, UniProt P08581); experiment: Inhibition of recombinant c-MET (unknown origin) using poly (Glu,Tyr) 4:1 as substrate after 60 mins by ELISA
[18] = target: Tyrosine-protein kinase ABL1 (Homo sapiens, UniProt P00519); experiment: Inhibition of recombinant ABL (unknown origin) using poly (Glu,Tyr) 4:1 as substrate after 60 mins by ELISA
[19] = target: Epidermal growth factor receptor (Homo sapiens, UniProt P00533); experiment: Inhibition of recombinant EGFR (unknown origin) using poly (Glu,Tyr) 4:1 as substrate after 60 mins by ELISA
Ephrin type-A receptor 2 = Ephrin type-A receptor 2 (Homo sapiens, UniProt P29317); experiment: Inhibition of recombinant EPHA2 (unknown origin) using poly (Glu,Tyr) 4:1 as substrate after 60 mins by ELISA
[20] = target: Receptor tyrosine-protein kinase erbB-4 (Homo sapiens, UniProt Q15303); experiment: Inhibition of recombinant ERBB4 (unknown origin) using poly (Glu,Tyr) 4:1 as substrate after 60 mins by ELISA
[21] = target: Insulin-like growth factor 1 receptor (Homo sapiens, UniProt P08069); experiment: Inhibition of recombinant IGF1R (unknown origin) using poly (Glu,Tyr) 4:1 as substrate after 60 mins by ELISA
[22] = target: Tyrosine-protein kinase BTK (Homo sapiens, UniProt Q06187); experiment: Inhibition of recombinant BTK (unknown origin) using poly (Glu,Tyr) 4:1 as substrate after 60 mins by ELISA
Homo sapiens = species on record: Homo sapiens; experiment: Selectivity ratio of IC50 for recombinant VEGFR2 (unknown origin) to IC50 for recombinant FGFR1 (unknown origin)
[23] = target: T1, Fibroblast growth factor receptor 1; experiment: Inhibition of FGFR1 phosphorylation in human KG1 cells at 5 to 20 nM after 2 hrs by Western blot analysis; type: cell-based
Target sequence in this assay (P11362 22-822 limits assumed): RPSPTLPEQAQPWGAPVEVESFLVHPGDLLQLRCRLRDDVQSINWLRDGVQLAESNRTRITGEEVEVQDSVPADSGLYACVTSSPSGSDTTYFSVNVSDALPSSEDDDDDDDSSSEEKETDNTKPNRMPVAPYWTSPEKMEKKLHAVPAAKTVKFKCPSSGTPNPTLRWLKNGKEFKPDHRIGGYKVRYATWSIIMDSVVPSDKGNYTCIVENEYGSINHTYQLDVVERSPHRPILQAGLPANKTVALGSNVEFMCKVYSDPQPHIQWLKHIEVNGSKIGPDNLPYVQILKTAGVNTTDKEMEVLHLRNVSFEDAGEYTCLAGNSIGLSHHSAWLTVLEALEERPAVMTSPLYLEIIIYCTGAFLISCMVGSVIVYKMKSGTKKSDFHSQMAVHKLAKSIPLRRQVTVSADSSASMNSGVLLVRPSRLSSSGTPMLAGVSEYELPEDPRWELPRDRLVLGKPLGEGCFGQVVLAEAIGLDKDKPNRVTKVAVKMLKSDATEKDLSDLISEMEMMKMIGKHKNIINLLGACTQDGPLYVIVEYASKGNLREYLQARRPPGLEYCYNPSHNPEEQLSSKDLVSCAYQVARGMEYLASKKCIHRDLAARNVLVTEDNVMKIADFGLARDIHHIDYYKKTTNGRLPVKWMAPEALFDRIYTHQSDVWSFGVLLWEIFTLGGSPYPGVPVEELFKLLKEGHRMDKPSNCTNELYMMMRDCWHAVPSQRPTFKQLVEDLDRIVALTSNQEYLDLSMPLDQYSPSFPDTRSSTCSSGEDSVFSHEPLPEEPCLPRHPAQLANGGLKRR

[24] = target: T1, Fibroblast growth factor receptor 1; experiment: Inhibition of FGFR1 in human KG1 cells assessed as reduction in PLCgamma phosphorylation at 5 to 20 nM after 2 hrs by Western blot analysis; type: cell-based
Target sequence in this assay (P11362 22-822 limits assumed): as above

[25] = target: T1, Fibroblast growth factor receptor 1; experiment: Inhibition of FGFR1 in human KG1 cells assessed as reduction in ERK phosphorylation at 5 to 20 nM after 2 hrs by Western blot analysis; type: cell-based
Target sequence in this assay (P11362 22-822 limits assumed): as above

[26] = target: T2, Fibroblast growth factor receptor 2; experiment: Inhibition of FGFR2 phosphorylation in human SNU16 cells at 0.1 to 10 nM after 2 hrs by Western blot analysis; type: cell-based
Target sequence in this assay (P21802 22-821 limits assumed): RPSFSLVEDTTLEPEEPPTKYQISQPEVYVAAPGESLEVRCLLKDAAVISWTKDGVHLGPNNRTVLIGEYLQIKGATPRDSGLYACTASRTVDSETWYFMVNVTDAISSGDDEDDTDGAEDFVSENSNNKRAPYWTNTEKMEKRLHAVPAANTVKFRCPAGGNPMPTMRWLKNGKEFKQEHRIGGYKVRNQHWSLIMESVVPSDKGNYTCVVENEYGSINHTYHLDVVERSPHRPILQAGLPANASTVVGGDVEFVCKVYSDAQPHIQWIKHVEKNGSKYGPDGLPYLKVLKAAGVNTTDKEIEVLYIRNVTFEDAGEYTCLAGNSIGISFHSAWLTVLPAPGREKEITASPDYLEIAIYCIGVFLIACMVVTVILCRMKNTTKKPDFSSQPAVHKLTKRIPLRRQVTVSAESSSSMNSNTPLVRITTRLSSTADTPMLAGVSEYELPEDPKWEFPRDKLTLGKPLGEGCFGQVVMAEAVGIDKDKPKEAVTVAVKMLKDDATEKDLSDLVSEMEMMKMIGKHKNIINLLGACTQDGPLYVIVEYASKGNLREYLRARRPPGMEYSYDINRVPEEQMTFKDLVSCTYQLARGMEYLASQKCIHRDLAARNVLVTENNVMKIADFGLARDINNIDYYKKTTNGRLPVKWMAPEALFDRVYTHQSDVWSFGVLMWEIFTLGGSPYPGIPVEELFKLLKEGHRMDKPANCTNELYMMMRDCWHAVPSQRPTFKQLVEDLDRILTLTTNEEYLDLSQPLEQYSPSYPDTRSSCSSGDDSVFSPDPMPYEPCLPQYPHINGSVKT

[27] = target: T2, Fibroblast growth factor receptor 2; experiment: Inhibition of FGFR2 in human SNU16 cells assessed as reduction in PLCgamma phosphorylation at 0.1 to 10 nM after 2 hrs by Western blot analysis; type: cell-based
Target sequence in this assay (P21802 22-821 limits assumed): as above

[28] = target: T2, Fibroblast growth factor receptor 2; experiment: Inhibition of FGFR2 in human SNU16 cells assessed as reduction in ERK phosphorylation at 0.1 to 10 nM after 2 hrs by Western blot analysis; type: cell-based
Target sequence in this assay (P21802 22-821 limits assumed): as above

[29] = target: T3, Fibroblast growth factor receptor 3; experiment: Inhibition of FGFR3 phosphorylation in human UMUC14 cells at 1 to 100 nM after 2 hrs by Western blot analysis; type: cell-based
Target sequence in this assay (P22607 23-806 limits assumed): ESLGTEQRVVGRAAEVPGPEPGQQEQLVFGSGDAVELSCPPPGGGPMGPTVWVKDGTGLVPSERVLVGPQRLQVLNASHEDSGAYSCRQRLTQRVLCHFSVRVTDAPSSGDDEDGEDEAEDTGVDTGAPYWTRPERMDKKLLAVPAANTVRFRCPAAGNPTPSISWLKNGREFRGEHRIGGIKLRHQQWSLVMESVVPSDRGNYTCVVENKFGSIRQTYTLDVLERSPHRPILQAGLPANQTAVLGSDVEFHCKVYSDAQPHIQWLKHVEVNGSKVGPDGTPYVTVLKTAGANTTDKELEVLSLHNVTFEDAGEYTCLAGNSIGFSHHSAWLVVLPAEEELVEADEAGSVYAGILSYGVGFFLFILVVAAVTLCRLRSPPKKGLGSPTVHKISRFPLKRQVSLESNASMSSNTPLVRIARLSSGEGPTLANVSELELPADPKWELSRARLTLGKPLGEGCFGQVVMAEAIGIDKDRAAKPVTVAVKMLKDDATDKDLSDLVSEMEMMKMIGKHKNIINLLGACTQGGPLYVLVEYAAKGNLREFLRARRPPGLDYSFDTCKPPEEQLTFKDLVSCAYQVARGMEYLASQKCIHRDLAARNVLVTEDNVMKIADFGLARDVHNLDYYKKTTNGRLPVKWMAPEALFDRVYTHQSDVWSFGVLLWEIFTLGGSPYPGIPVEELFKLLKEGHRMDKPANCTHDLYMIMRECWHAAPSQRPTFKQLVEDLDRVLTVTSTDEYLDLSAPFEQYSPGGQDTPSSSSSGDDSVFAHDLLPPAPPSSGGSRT

[30] = target: T3, Fibroblast growth factor receptor 3; experiment: Inhibition of FGFR3 in human UMUC14 cells assessed as reduction in PLCgamma phosphorylation at 1 to 100 nM after 2 hrs by Western blot analysis; type: cell-based
Target sequence in this assay (P22607 23-806 limits assumed): as above

[31] = target: T3, Fibroblast growth factor receptor 3; experiment: Inhibition of FGFR3 in human UMUC14 cells assessed as reduction in ERK phosphorylation at 1 to 100 nM after 2 hrs by Western blot analysis; type: cell-based
Target sequence in this assay (P22607 23-806 limits assumed): as above

[32] = target: T1, Fibroblast growth factor receptor 1; experiment: Irreversible inhibition of FGFR1 (unknown origin) at 100 times IC50 concentration using 5-FAM-KKSRGDYMTMQIG-CONH2 peptide as substrate preincubated for 30 mins followed 100 fold dilution with substrate and ATP and measured for 1 hr
Target sequence in this assay (P11362 22-822 limits assumed): as the sequence (P11362 22-822 limits assumed) above

NCI-H1581 [33] = experiment: Antitumor activity against FGFR1 amplified human NCI-H1581 cells xenografted in po dosed nude mouse assessed as tumor growth inhibition administered once daily for 14 days; type: functional, organism-based
SNU-16 [34] = experiment: Antitumor activity against FGFR2 amplified human SNU16 cells xenografted in po dosed nude mouse assessed as tumor growth inhibition administered once daily for 21 days; type: functional, organism-based
NCI-H1581 [35] = experiment: Antitumor activity against FGFR1 amplified human NCI-H1581 cells xenografted in nude mouse assessed as tumor growth inhibition at 100 mg/kg, po administered once daily for 14 days relative to control; type: functional; settings: 336 h, read-out: TGI
SNU-16 [36] = experiment: Antitumor activity against FGFR2 amplified human SNU16 cells xenografted in nude mouse assessed as tumor growth inhibition at 50 mg/kg, po administered once daily for 21 days relative to control; type: functional; settings: SNU-16, po, 504 h, read-out: TGI
[37] = Toxicity in nude mouse xenografted with FGFR1 amplified human NCI-H1581 cells assessed as weight loss at 50 to 100 mg/kg, po administered once daily for 14 days relative to control; type: organism-based; settings: in vivo, 336 h
[38] = Toxicity in nude mouse xenografted with FGFR2 amplified human SNU16 cells assessed as weight loss at 25 to 50 mg/kg, po administered once daily for 21 days relative to control; type: organism-based; settings: in vivo, 504 h
SNU-16 [39] = experiment: cells; settings: Homo sapiens, SNU-16, 72 h
Description: Antiproliferative activity against FGFR2 amplified human SNU16 cells after 72 hrs by CCK8 or MTT assay

OPM-2 = experiment: cells; settings: Homo sapiens, OPM-2, 72 h
Description: Antiproliferative activity against FGFR3 amplified human OPM2 cells after 72 hrs by CCK8 or MTT assay

RT-112 = experiment: cells; settings: Homo sapiens, RT-112, 72 h
Description: Antiproliferative activity against FGFR3 amplified human RT112 cells after 72 hrs by CCK8 or MTT assay

Huh-7 = experiment: cells; settings: Homo sapiens, Huh-7, 72 h
Description: Antiproliferative activity against FGF19/FGFR4 expressing human HuH7 cells after 72 hrs by CCK8 or MTT assay

BaF3 [40] = experiment: cells; settings: Mus musculus, BaF3, 72 h
Description: Antiproliferative activity against mouse BAF3 cells expressing TEL-fused FGFR4 kinase after 72 hrs by CCK8 or MTT assay

BaF3 [41] = experiment: cells; settings: Mus musculus, BaF3, 72 h; remark: listed apart in the source
Description: Antiproliferative activity against mouse BAF3 cells expressing TEL-fused KDR kinase after 72 hrs by CCK8 or MTT assay

IC50 (NCI-H1581 [1]): < 0.3 nM
Structure (SMILES): C=CC(=O)N1CCC(n2cc(-c3cc4cccc(C)c4s3)c3c(N)ncnc32)C1 (stereo not drawn)

IC50 [2]: > 100 nM
IC50 [3]: > 100 nM
Structure (SMILES): C=CC(=O)N1CCC(n2cc(-c3cc4cc(C)cc(OC)c4s3)c3c(NC)ncnc32)C1 (stereo not drawn)

IC50 (NCI-H1581 [1]): 170 nM
Structure (SMILES): C=CC(=O)N1CC(n2cc(-c3cc4ccccc4s3)c3c(N)ncnc32)C1

IC50 (NCI-H1581 [1]): 49.7 nM
Structure (SMILES): CCC(=O)N1CCC(n2cc(-c3cc4cc(C)cc(OC)c4s3)c3c(N)ncnc32)C1 (stereo not drawn)

IC50 (NCI-H1581 [1]): 254 nM
Structure (SMILES): C=CC(=O)N1CCC(n2cc(-c3cc4cc(C)cc(OC)c4s3)c3c(N)nc(C)nc32)C1 (stereo not drawn)

IC50 [2]: 5.3 nM
Tmax [4]: 2.75 h
Cmax [5]: 77.7 ng/mL
AUC [6]: 277 ng·h/mL
half-life [7]: 104 min
IC50 [8]: 0.8 nM
IC50 [9]: 9.4 nM
IC50 [10]: 113 nM
IC50 [11]: > 1000 nM
IC50 [12]: > 1000 nM
IC50 [13]: > 1000 nM
IC50 [14]: > 1000 nM
IC50 [15]: > 1000 nM
IC50 [16]: > 1000 nM
IC50 [17]: > 1000 nM
IC50 [18]: > 1000 nM
IC50 [19]: > 1000 nM
IC50 (Ephrin type-A receptor 2): > 1000 nM
IC50 [20]: > 1000 nM
IC50 [21]: > 1000 nM
IC50 [22]: > 1000 nM
Ratio IC50 (Homo sapiens): > 350
inhibition [23]: Active
inhibition [24]: Active
inhibition [25]: Active
inhibition [26]: Active
inhibition [27]: Active
inhibition [28]: Active
inhibition [29]: Active
inhibition [30]: Active
inhibition [31]: Active
inhibition [32]: Active
IC50 [3]: < 0.3 nM
IC50 (NCI-H1581 [1]): 0.3 to 0.5 nM
IC50 (SNU-16 [39]): < 0.1 nM
IC50 (OPM-2): < 0.5 nM
IC50 (RT-112): < 0.5 nM
IC50 (Huh-7): < 1.5 nM
IC50 (BaF3 [40]): < 4.6 nM
IC50 (BaF3 [41]): 294 nM
Structure (SMILES): C=CC(=O)N1CC[C@H](n2cc(-c3cc4cc(C)cc(OC)c4s3)c3c(N)ncnc32)C1
TGI (NCI-H1581 [33]): Dose-dependent effect
TGI (SNU-16 [34]): Dose-dependent effect
inhibition in vivo at 100 mg/kg (NCI-H1581 [35]): 98.9%
inhibition in vivo at 50 mg/kg (SNU-16 [36]): 85.8%
Activity [37]: Non-Toxic
Activity [38]: Non-Toxic

IC50 (NCI-H1581 [1]): 38.1 nM
Structure (SMILES): C=CC(=O)N1CC(n2cc(-c3cc4cc(OC)ccc4s3)c3c(N)ncnc32)C1

IC50 (NCI-H1581 [1]): 207 nM
Structure (SMILES): C=CC(=O)N1CC(n2cc(-c3cc4cc(C)cc(OC)c4s3)c3c(N)nc(Cl)nc32)C1

IC50 (NCI-H1581 [1]): 25.7 nM
Structure (SMILES): C=CC(=O)N1CCC(n2cc(-c3cc4cc(C)cc(OC)c4s3)c3c(N)nc(N)nc32)C1 (stereo not drawn)

IC50 (NCI-H1581 [1]): > 1000 nM
Structure (SMILES): C#CC(=O)N1CCC(n2cc(-c3cc4cc(C)cc(OC)c4s3)c3c(N)ncnc32)C1 (stereo not drawn)

IC50 (NCI-H1581 [1]): < 0.3 nM
Structure (SMILES): C=CC(=O)N1CCC(n2cc(-c3cc4cc(OC)cc(OC)c4s3)c3c(N)ncnc32)C1 (stereo not drawn)

IC50 (NCI-H1581 [1]): < 0.3 nM
Structure (SMILES): C=C(CN(C)C)C(=O)N1CCC(n2cc(-c3cc4cc(C)cc(OC)c4s3)c3c(N)ncnc32)C1 (stereo not drawn)

IC50 (NCI-H1581 [1]): 86.1 nM
Structure (SMILES): C=CC(=O)N1CC(n2cc(-c3cc4ccc(OC)cc4s3)c3c(N)ncnc32)C1

IC50 [2]: 82.7 nM
IC50 [3]: 0.6 nM
IC50 (NCI-H1581 [1]): 21.7 nM
Structure (SMILES): C=CC(=O)N1CC[C@@H](n2cc(-c3cc4cc(C)cc(OC)c4s3)c3c(N)ncnc32)C1

IC50 (NCI-H1581 [1]): 67.9 nM
Structure (SMILES): C=CC(=O)NC1CCC(n2cc(-c3cc4cc(C)cc(OC)c4s3)c3c(N)ncnc32)CC1 (stereo not drawn)
